Results from PubChem BioAssay AID248 (DTP/NCI, 2004).
Inconclusive results and toxic doses are left out. Rule as the data show it: active = T/C of 150% or more; inactive = T/C below 125%.

Tested on: L1210 leukemia ip in BDF1 mice, survival T/C
Assay: NCI In Vivo Anticancer Drug Screen. Data for tumor model L1210 Leukemia (intraperitoneal) in B6D2F1 (BDF1) mice
Settings: endpoint: mean survival time, higher = longer survival
Outline: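 In this screen, tumor-bearing mice given compound are compared to those given vehicle, and their survival values are reported as a treated-to-control quotient.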

[1] = dose: 100.0 mg/kg/injection, schedule: Q01DX009 (ip), vehicle: Klucel (hydroxypropylcellulose) (HPC)
[2] = dose: 200.0 mg/kg/injection, schedule: Q01DX009 (ip), vehicle: Klucel (hydroxypropylcellulose) (HPC)
[3] = dose: 400.0 mg/kg/injection, schedule: Q01DX009 (ip), vehicle: Klucel (hydroxypropylcellulose) (HPC)
[4] = dose: 25.0 mg/kg/injection, schedule: Q01DX009 (ip), vehicle: Klucel (hydroxypropylcellulose) (HPC)
[5] = dose: 25.0 mg/kg/injection, schedule: Q04DX003 (ip), vehicle: saline
[6] = dose: 100.0 mg/kg/injection, schedule: Q01DX001 (ip), vehicle: saline
[7] = dose: 100.0 mg/kg/injection, schedule: Q01DX009 (ip), vehicle: saline with Tween-80
[8] = dose: 100.0 mg/kg/injection, schedule: Q04DX003 (ip), vehicle: saline with Tween-80
[9] = dose: 200.0 mg/kg/injection, schedule: Q01DX009 (ip), vehicle: saline with Tween-80
[10] = dose: 200.0 mg/kg/injection, schedule: Q04DX003 (ip), vehicle: saline with Tween-80
[11] = dose: 400.0 mg/kg/injection, schedule: Q01DX009 (ip), vehicle: saline with Tween-80
[12] = dose: 400.0 mg/kg/injection, schedule: Q04DX003 (ip), vehicle: saline with Tween-80
[13] = dose: 100.0 mg/kg/injection, schedule: Q04DX002 (ip), vehicle: Klucel (hydroxypropylcellulose) (HPC)
[14] = dose: 200.0 mg/kg/injection, schedule: Q04DX002 (ip), vehicle: Klucel (hydroxypropylcellulose) (HPC)
[15] = dose: 400.0 mg/kg/injection, schedule: Q04DX002 (ip), vehicle: Klucel (hydroxypropylcellulose) (HPC)
[16] = dose: 100.0 mg/kg/injection, schedule: Q01DX001 (ip), vehicle: Klucel (hydroxypropylcellulose) (HPC)
[17] = dose: 200.0 mg/kg/injection, schedule: Q01DX001 (ip), vehicle: Klucel (hydroxypropylcellulose) (HPC)
[18] = dose: 100.0 mg/kg/injection, schedule: Q01DX009 (ip), vehicle: saline sonified
[19] = dose: 200.0 mg/kg/injection, schedule: Q01DX009 (ip), vehicle: saline sonified
[20] = dose: 400.0 mg/kg/injection, schedule: Q01DX001 (ip), vehicle: Klucel (hydroxypropylcellulose) (HPC)
[21] = dose: 400.0 mg/kg/injection, schedule: Q01DX009 (ip), vehicle: saline sonified
[22] = dose: 100.0 mg/kg/injection, schedule: Q04DX003 (ip), vehicle: Klucel (hydroxypropylcellulose) (HPC)
[23] = dose: 200.0 mg/kg/injection, schedule: Q04DX003 (ip), vehicle: Klucel (hydroxypropylcellulose) (HPC)
[24] = dose: 400.0 mg/kg/injection, schedule: Q04DX003 (ip), vehicle: Klucel (hydroxypropylcellulose) (HPC)
[25] = dose: 100.0 mg/kg/injection, schedule: Q01DX001 (ip), vehicle: carboxymethylcellulose (CMC)
[26] = dose: 200.0 mg/kg/injection, schedule: Q01DX001 (ip), vehicle: carboxymethylcellulose (CMC)

Measured: T/C

Cc1ccc(Cl)cc1NS(=O)(=O)c1cc(Cl)c(Cl)cc1Cl
inactive: [1] 93 % of control | [2] 89 % of control | [3] 94 % of control

O=S1(=O)CC(Br)C1
inactive: dose: 12.5 mg/kg/injection, schedule: Q04DX002 (ip), vehicle: Klucel (hydroxypropylcellulose) (HPC) 86 % of control | [4] 96 % of control | dose: 25.0 mg/kg/injection, schedule: Q04DX002 (ip), vehicle: Klucel (hydroxypropylcellulose) (HPC) 93 % of control | dose: 50.0 mg/kg/injection, schedule: Q01DX009 (ip), vehicle: Klucel (hydroxypropylcellulose) (HPC) 96 % of control | dose: 50.0 mg/kg/injection, schedule: Q04DX002 (ip), vehicle: Klucel (hydroxypropylcellulose) (HPC) 109 % of control

COc1c2c(c(OC)c3c(OC)c4ccccc4c(OC)c13)CC=CC2
inactive: dose: 50.0 mg/kg/injection, schedule: Q01DX005 (ip), vehicle: water 94 % of control | dose: 100.0 mg/kg/injection, schedule: Q01DX005 (ip), vehicle: water 87 % of control | dose: 200.0 mg/kg/injection, schedule: Q01DX005 (ip), vehicle: water 89 % of control | dose: 400.0 mg/kg/injection, schedule: Q01DX005 (ip), vehicle: water 87 % of control

Cc1ccc(S(=O)(=O)OC2CC3c4ccccc4C2c2cccc[n+]23)cc1 (stereo unspecified)
inactive: dose: 12.5 mg/kg/injection, schedule: Q01DX001 (ip), vehicle: saline 103 % of control | dose: 25.0 mg/kg/injection, schedule: Q01DX001 (ip), vehicle: saline 115 % of control | [5] 99 % of control | dose: 50.0 mg/kg/injection, schedule: Q01DX001 (ip), vehicle: saline 110 % of control | dose: 50.0 mg/kg/injection, schedule: Q04DX003 (ip), vehicle: saline 94 % of control | [6] 105 % of control

COc1ccc(OC(=O)CCCl)cc1
inactive: dose: 50.0 mg/kg/injection, schedule: Q01DX009 (ip), vehicle: saline with Tween-80 98 % of control | dose: 50.0 mg/kg/injection, schedule: Q04DX003 (ip), vehicle: saline with Tween-80 104 % of control | [7] 104 % of control | [8] 95 % of control | [9] 105 % of control | [10] 95 % of control | [11] 121 % of control | [12] 104 % of control

O=C(COc1ccc(Cl)c(Cl)c1)N(Cc1ccccc1)Cc1ccc[n+](Cc2ccc(Cl)cc2S(=O)(=O)F)c1
inactive: [13] 95 % of control | [14] 95 % of control | [15] 104 % of control

Nc1cccc(-c2ccccc2)c1
inactive: [16] 92 % of control | [17] 90 % of control

CCN(CCOC(=O)Nc1ccc(F)cc1)c1ccccc1
inactive: [1] 98 % of control | [2] 98 % of control | [3] 110 % of control

COc1ccc(/C(C#N)=C/c2ccc(N(C)CCC#N)cc2)cc1
inactive: dose: 12.5 mg/kg/injection, schedule: Q01DX009 (ip), vehicle: Klucel (hydroxypropylcellulose) (HPC) 103 % of control | [4] 100 % of control

CCCCCCCC/C=C\CCCCCCCC(=O)OCCCCCCCC
inactive: [16] 97 % of control | [18] 102 % of control | [17] 98 % of control | [19] 98 % of control | [20] 92 % of control | [21] 105 % of control

CCOC(=O)c1cc(CC)sc1N
inactive: [7] 96 % of control | [22] 91 % of control | [9] 86 % of control | [23] 97 % of control | [11] 90 % of control | [24] 96 % of control

NNC(=O)C1C2CCCCC21 (stereo unspecified)
inactive: [8] 107 % of control

O=C(O)C1CCCCC1C(=O)NCc1ccccc1Cl (stereo unspecified)
inactive: [13] 100 % of control | [14] 100 % of control | [15] 96 % of control

O=CN/N=C/c1ccc(Cl)c([N+](=O)[O-])c1
inactive: dose: 75.0 mg/kg/injection, schedule: Q01DX001 (ip), vehicle: acetone 93 % of control | dose: 150.0 mg/kg/injection, schedule: Q01DX001 (ip), vehicle: acetone 92 % of control | dose: 300.0 mg/kg/injection, schedule: Q01DX001 (ip), vehicle: acetone 92 % of control

CSCC1OC(n2nnc3c(N)ncnc32)C(O)C1O (stereo unspecified)
inactive: [16] 100 % of control | [17] 103 % of control

Clc1ccc(-c2ncnc3c2Cc2ccccc2-3)cc1
inactive: [18] 98 % of control | dose: 100.0 mg/kg/injection, schedule: Q04DX003 (ip), vehicle: saline sonified 99 % of control | [19] 98 % of control | dose: 200.0 mg/kg/injection, schedule: Q04DX003 (ip), vehicle: saline sonified 99 % of control | [21] 97 % of control | dose: 400.0 mg/kg/injection, schedule: Q04DX003 (ip), vehicle: saline sonified 96 % of control

S=P(NCc1cccc(CNP(=S)(N2CC2)N2CC2)c1)(N1CC1)N1CC1
inactive: dose: 75.0 mg/kg/injection, schedule: Q01DX001 (ip), vehicle: carboxymethylcellulose (CMC) 98 % of control | dose: 150.0 mg/kg/injection, schedule: Q01DX001 (ip), vehicle: carboxymethylcellulose (CMC) 98 % of control | dose: 300.0 mg/kg/injection, schedule: Q01DX001 (ip), vehicle: carboxymethylcellulose (CMC) 93 % of control

CC12CCC(O)C(CC1)C2 (stereo unspecified)
inactive: [8] 107 % of control | [10] 88 % of control | [12] 95 % of control

O=P(Oc1ccccc1)(Oc1ccccc1)Oc1ccccc1Cl
inactive: [6] 96 % of control | dose: 200.0 mg/kg/injection, schedule: Q01DX001 (ip), vehicle: saline 102 % of control | dose: 400.0 mg/kg/injection, schedule: Q01DX001 (ip), vehicle: saline 97 % of control

C#Cc1ccc([N+](=O)[O-])cc1
inactive: [1] 95 % of control | [22] 88 % of control | [2] 94 % of control | [23] 91 % of control | [3] 95 % of control | [24] 93 % of control

O=c1[nH]nnc2c1cnn2-c1ccccc1
inactive: [25] 101 % of control | [26] 97 % of control

CNC(=O)Oc1cccc(NC(=O)OC(C)(C)C)c1
inactive: [8] 101 % of control | [10] 94 % of control | [12] 95 % of control

CCOC(=O)c1c(C)c2c(n1C)CCC(C#N)C2=O (stereo unspecified)
inactive: [25] 103 % of control | [26] 97 % of control | dose: 400.0 mg/kg/injection, schedule: Q01DX001 (ip), vehicle: carboxymethylcellulose (CMC) 98 % of control

COc1cc2c(cc1OC)-c1cc3ccc(OC)c(OC)c3c[n+]1CC2
inactive: dose: 6.25 mg/kg/injection, schedule: Q04DX003 (ip), vehicle: saline 105 % of control | dose: 12.5 mg/kg/injection, schedule: Q04DX003 (ip), vehicle: saline 101 % of control | [5] 103 % of control

Cc1c(CBr)c2ccccc2[nH]c1=O
inactive: dose: 100.0 mg/kg/injection, schedule: Q01DX001 (ip), vehicle: other 97 % of control | dose: 200.0 mg/kg/injection, schedule: Q01DX001 (ip), vehicle: other 108 % of control

c1ccc(CNCCNCCNCc2ccccc2)cc1
inactive: [8] 101 % of control | [10] 98 % of control | [12] 94 % of control

CCCCNC(=S)NC1CC(O[C@H]2C[C@](O)(C(C)=O)Cc3c(O)c4c(c(O)c32)C(=O)c2c(OC)cccc2C4=O)OC(C)C1O (stereo partly specified)
inactive: [7] 94 % of control

CCOC(=O)C(CC(=O)O)C1=CCCc2ccccc21 (stereo unspecified)
inactive: [16] 96 % of control | [1] 90 % of control | [17] 104 % of control | [2] 91 % of control | [20] 90 % of control | [3] 90 % of control
